Measurements from patent US6303619A, “Meta-substituted acidic 8-phenylxanthine antagonists of A3 human adenosine receptors” (priority 1998, dated 2001).

Molecular target: T1, human A3 adenosine receptor (Homo sapiens, UniProt P0DMS8)
T1 construct: clone HS-21a contained the complete open reading frame corresponding to the human homolog of the rat A3 adenosine receptor; expressed in transfected cells; host or cells: CHO cells stably transfected with HS-21a cDNA
T1 sequence (P0DMS8 1-318): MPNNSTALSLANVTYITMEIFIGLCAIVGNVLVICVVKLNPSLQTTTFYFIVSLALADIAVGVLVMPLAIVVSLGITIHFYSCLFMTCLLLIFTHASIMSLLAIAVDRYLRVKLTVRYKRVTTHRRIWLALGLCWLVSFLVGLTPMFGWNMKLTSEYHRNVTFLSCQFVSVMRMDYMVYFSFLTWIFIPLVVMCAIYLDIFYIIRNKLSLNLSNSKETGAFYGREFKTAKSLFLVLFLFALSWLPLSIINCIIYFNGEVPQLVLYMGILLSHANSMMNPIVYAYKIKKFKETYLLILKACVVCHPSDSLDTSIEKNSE
Experiment: 125I-ABA binding to membranes of stably transfected CHO cells expressing the human A3 adenosine receptor (HS-21a)
Conditions: human A3
Description: Membranes were prepared from transiently transfected COS7 cells […] after transfection or from G418-selected stably transfected CHO or HEK 293 cells. Cells were harvested in 1 mM EDTA in phosphate buffered saline and centrifuged at 2000×g for 10 minutes. The cell pellet was washed once with phosphate buffered saline. The cell pellet was resuspended in 2 mL of 5 mM Tris, pH 7.6/5mM MgCl2. Membranes were prepared from the cells by freeze-thaw lysis in which the suspension was frozen in a dry ice/ethanol bath and thawed at 25° C. twice. The suspension was homogenized after adding an additional 2 mL of 5 mM Tris, pH 7.6/5 mM MgCl2, in a glass dounce homogenizer with 20 strokes. The membranes were pelleted at 40,000×g at 4° C. for 20 minutes. The membrane pellet was resuspended at a protein concentration of 1-2 mg/mL in binding assay buffer, 50 mM Tris, pH 7.6/10 mM MgCl2. Protein concentration was determined by the method of Bradford ((1976) Anal. Biochem. 72: 248-250). […] Saturation binding of [^125 I]-N^6 -aminiobenizyladenosine (125I-ABA) or [^125 I]-N^6 -2-(4-amino-3-iodophenyl)ethyladenosine (APNEA) was performed on membranes prepared from pSVLA3 transfected COS7 cells. Membranes (100 μg) were incubated in the presence of 0.2 U/mL adenosine deaminase with increasing concentrations of ^125 I-ABA in the range of 0.1-30 nM for 120 minutes at 25° C. in a total volume of 500 μl. The binding assay was terminated by rapid filtration and three washes with ice-cold 50 mM Tris, pH 7.6/10 mM MgCl2 on a Skatron cell harvester equipped with a receptor binding flitermat (SKATRON INSTRUMENTS, INC). Non-specific binding was determined on non-transfected cells. Bound radioactivity was measured by scintillation counting in Ready Safe Scintillation Cocktail (BECKMAN).
The 1.7 kb HS-21a cDNA (A3) was subcloned as a SalI-BamHl fragment into the expression vector pCMV5 (Mumby, S. M., Heukeroth, R. O., Gordon, J. I. and Gilman, A. G. (1990) Proc. Natl. Acad. Sci. USA 87, 728-732.) creating the vector pCMV5-A3. CHO or HEK 293 cells stably expressing the human HS-21 a cDNA were prepared by co-transfection of 15 μg pCMV5-A3 and 1 μg pWLneo (Stratagene) using the calcium phosphate method. Stable cell lines were also generated using EBV based mammalian expression vectors, pREP (INVITROGEN). Neomycin resistant colonies were selected in 1 mg/mL G418 (GIBCO). Stable colonies were screened for expression of HS-21a by ^125 I-ABA binding.
Membranes were prepared from stable CHO cell lines in 10 mM Hepes, pH 7.4 containing 0.1 mM benzamidine and 0.1 mM PMSF as described (Mahan, L. C. et al., (1991) Mol. Pharinacol. 40, 1-7). Pellets were resuspended in 5 mM Hepes, pH 7.4/5 mM MgCl2 /0.1 mM benzarnidine/0.1 mM PMSF at a protein concentration of 1-2 mg/mL and were incubated with adenosine deaminase (Boehringer Mannheim), 2 U/mL at 37° C. for 20 minutes. Saturation binding of ^125 I-ABA was carried out on 50 μg of membranes for 120 minutes at 25° C. in a total volume of 100 μl. The assay was terminated by rapid filtration and three washes with ice-cold binding buffer on a Skatron harvester equipped with a receptor binding filtermat (Skatron Instruments, Inc.). The specific activity of ^125 I-ABA, initially 2,200 Ci/mmol, was reduced to 100 Ci/mmol with nonradioactive I-ABA for saturation analysis. Nonspecific binding was measured in the presence of 1 uM I-ABA. The KD and Bmax values were calculated by the EBDA program (McPherson, G. A. (1983) Computer Programs for Biomedicine 17, 107-114). Competition binding of agonists and antagonists was determined with ^125 I-ABA (0.17-2.0 nM, 2000 Ci/mmol). […] Binding data were analyzed and competition curves were constructed by use of the nonlinear regression curve fitting program Graph PAD InPlot, Version 3.0 (Graph Pad Software, San Diego).

CCCn1c(=O)c2[nH]c(-c3cccc(C=CC(=O)O)c3)nc2n(CCC)c1=O [BW-3911]
A3 antagonist affinity in words: potent and selective A3 antagonist
